Columns and labels:
[1] = system: Aβ42; assay: In vivo efficacy, Method 2: brain soluble Aβ42 lowering 4 h after a single oral dose, ELISA (Table 4b); set-up: species or system mouse; details: dose 30 mg/kg oral dosing
Description: (§1) To determine whether acute administration of an Aβ42 lowering agent would reduce Aβ42 levels in vivo, non-transgenic rodents, e.g. mice or rats were used. Animals treated with the Aβ42 lowering agent were examined and compared to those untreated or treated with vehicle and brain levels of soluble Aβ42 and total Aβ were quantitated by standard techniques, for example, using ELISA. Treatment periods varied from hours (h) to days and were adjusted based on the results of the Aβ42 lowering once a time course of onset of effect could be established.
(§2) A typical protocol for measuring Aβ42 lowering in vivo is shown but it is only one of many variations that could be used to optimize the levels of detectable Aβ. For example, Aβ42 lowering compounds were formulated in 20% of Captisol® (a sulfobutyl ether of β-cyclodextrin) in water or 20% hydroxypropyl β cyclodextrin. The Aβ42 lowering agents were administered as a single oral dose or by any acceptable route of administration to overnight fasted animals. After 4 h, the animals were sacrificed and Aβ42 levels were analysed.
(§3) Blood was collected by decapitation and exsanguinations in EDTA-treated collection tubes. Blood was centrifuged at 1900 g for 10 minutes (min) at 4° C. and the plasma recovered and flash frozen for later analysis. The brain was removed from the cranium and hindbrain. The cerebellum was removed and the left and right hemisphere were separated. The left hemisphere was stored at −18° C. for quantitative analysis of test compound levels. The right hemisphere was rinsed with phosphate-buffered saline (PBS) buffer and immediately frozen on dry ice and stored at −80° C. until homogenization for biochemical assays.
(§4) Mouse brains from non-transgenic animals were resuspended in 8 volumes of 0.4% DEA (diethylamine)/50 mM NaCl containing protease inhibitors (Roche-11873580001 or 04693159001) per gram of tissue, e.g. for 0.158 g brain, add 1.264 ml of 0.4% DEA. All samples were homogenized in the FastPrep-24 system (MP Biomedicals) using lysing matrix D (MPBio #6913-100) at 6 m/s for 20 seconds. Homogenates were centrifuged at 221.300×g for 50 min. The resulting high speed supernatants were then transferred to fresh eppendorf tubes. Nine parts of supernatant were neutralized with 1 part 0.5 M Tris-HCl pH 6.8 and used to quantify Aβtotal and Aβ42.
(§5) To quantify the amount of Aβtotal and Aβ42 in the soluble fraction of the brain homogenates, Enzyme-Linked-Immunosorbent-Assays were used. Briefly, the standards (a dilution of synthetic Aβ1-40 and Aβ1-42, Bachem) were prepared in 1.5 ml Eppendorf tube in Ultraculture, with final concentrations ranging from 10000 to 0.3 pg/ml. The samples and standards were co-incubated with HRPO-labelled N-terminal antibody for Aβ42 detection and with the biotinylated mid-domain antibody 4G8 for Aβtotal detection. 50 μl of conjugate/sample or conjugate/standards mixtures were then added to the antibody-coated plate (the capture antibodies selectively recognize the C-terminal end of Aβ42, antibody JRF/cAβ42/26, for Aβ42 detection and the N-terminus of Aβ, antibody JRF/rAβ/2, for Aβtotal detection). The plate was allowed to incubate overnight at 4° C. in order to allow formation of the antibody-amyloid complex. Following this incubation and subsequent wash steps the ELISA for Aβ42 quantification was finished by addition of Quanta Blu fluorogenic peroxidase substrate according to the manufacturer's instructions (Pierce Corp., Rockford, Ill.). A reading was performed after 10 to 15 min (excitation 320/emission 420).
In this model at least 20% Aβ42 lowering compared to untreated animals would be advantageous.
(§6) The results are shown in Table 4b (dose 30 mg/kg oral dosing): […]

[2] = system: Aβ42; assay: γ-secretase-modulating activity, Method 2: Aβ42 Alphalisa in supernatant of SKNBE2 cells carrying APP 695-wild type (Table 3b); type: cell-based; details: overnight
Outline: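 SKNBE2 cells expressing wild-type APP695 were incubated overnight at 37° C. with test compound. Secreted Aβ42 was then measured by AlphaLISA, using a C-terminal Aβ42 antibody paired with an N-terminal Aβ antibody. IC50 came from a 4-parameter fit of percent of compound-free control.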

[3] = system: Aβtotal; assay: In vivo efficacy, Method 2: brain soluble Aβtotal lowering 4 h after a single oral dose, ELISA (Table 4b); set-up: species or system mouse; details: dose 30 mg/kg oral dosing
Description: as §1, §2, §3, §4, §5
For Aβtotal detection, a Streptavidine-Peroxidase-Conjugate was added, followed 60 min later by an additional wash step and addition of Quanta Blu fluorogenic peroxidase substrate according to the manufacturer's instructions (Pierce Corp., Rockford, Ill.). A reading was performed after 10 to 15 min (excitation 320 nm/emission 420 nm).
as §6

[4] = system: Aβtotal; assay: γ-secretase-modulating activity, Method 2: Aβtotal Alphalisa in supernatant of SKNBE2 cells carrying APP 695-wild type (Table 3b); type: cell-based; details: overnight, read-out: IC50 Aβtot
Outline: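 SKNBE2 cells expressing wild-type APP 695 were incubated overnight at 37 °C, 5% CO2 with test compound at a range of concentrations. Aβtotal in supernatant was measured by AlphaLISA sandwich (N-terminal JRF/AβN/25 acceptor, biotinylated mid-region 4G8 donor); IC50 from 4-parameter fit of percent control versus log concentration.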

Row | Compound | Aβ42 (% Ctrl) _Mean [1] [% Ctrl] | IC50 [2] [nM] | Aβtotal (% Ctrl) _Mean [3] [% Ctrl] | IC50 [4] [nM]
1 | COc1cc(-c2nc(Nc3cc(Br)ccc3F)n(C)n2)ccc1-n1cnc(C)c1 [Compound 303] | 33 | 40 | 23 | > 10000
2 | COc1cc(-c2nc3n(n2)CCC[C@H]3c2ccccc2C(F)(F)F)ccc1-n1cnc(C)c1 [Compound 261] | 46 | 24 | 6 | > 15000
3 | COc1cc(-c2nc(Nc3cc(C(F)(F)F)ccc3F)n(CC(C)(C)O)n2)ccc1-n1cnc(C)c1 [Compound 136] | −14 | 76 | 1 | 3020
4 | COc1cc(-c2nc(Nc3cc(C(F)(F)F)cc(F)c3F)n(C)n2)ccc1-n1cnc(C)c1 [Compound 140] | 33 | 20 | 8 | > 10000
5 | COc1cc(-c2nc(Nc3cc(Cl)ccc3F)n(C)n2)ccc1-n1cnc(C)c1 [Compound 123] | 36 | 58 | 31 | > 10000
6 | COc1cc(-c2nc(Nc3ccccc3OC(F)(F)F)n(C)n2)ccc1-n1cnc(C)c1.Cl.Cl [Compound 182] | 55 | 35 | 14 | 8510
7 | COc1ccc(C(F)(F)F)cc1Nc1nc(-c2ccc(-n3cnc(C)c3)c(OC)c2)nn1C [Compound 217] | 35 | 26 | −4 | 6460
8 | COc1nc(-c2nc(Nc3cc(Cl)ccc3F)n(C)n2)ccc1-n1cnc(C)c1 [Compound 117] | 44 | 60 | 17 | > 10000
9 | COc1nc(-c2nc3n(n2)CCC[C@H]3c2ccc(F)cc2C)ccc1-n1cnc(C)c1 [Compound 361] | 32 | 42 | −8 | 
10 | COc1cc(-c2nc(Nc3cccc(Cl)c3C(F)(F)F)n(C)n2)ccc1-n1cnc(C)c1 [Compound 169] | 57 | 41 | 9 | > 10000
11 | COc1nc(-c2nc(Nc3cccc(C(F)(F)F)c3)n(C)n2)ccc1-n1cnc(C)c1 [Compound 153] | 14 | 8 | −6 | > 10000
12 | COc1cc(Nc2nc(-c3ccc(-n4cnc(C)c4)c(OC)c3)nn2C)cc(C(F)(F)F)c1 [Compound 213] | 9 | 5 | 7 | 8910
13 | COc1cc(-c2nc(Nc3cccc(C(F)(F)F)c3F)n(C)n2)ccc1-n1cnc(C)c1 [Compound 148] | 37 | 23 | 12 | > 10000
14 | COc1nc(-c2nc(N(C)c3cc(C(F)(F)F)ccc3F)n(C)n2)ccc1-n1cnc(C)c1 [Compound 337] | 30 | 263 | 3 | > 10000
15 | COc1nc(-c2nc3n(n2)CCC[C@H]3c2ccccc2C(F)(F)F)ccc1-n1cnc(C)c1 [Compound 263] | 62 | 29 | 12 | > 10000
16 | COc1cc(-c2nc(Nc3cccc(C)c3F)n(C)n2)ccc1-n1cnc(C)c1 [Compound 161] | 45 | 78 | 8 | > 10000
17 | COc1cc(-c2nc(Nc3cccc(OC(F)(F)F)c3)n(C)n2)ccc1-n1cnc(C)c1 [Compound 181] | 28 | 25 | 9 | 5750
18 | COc1cc(-c2nc(Nc3cccc(F)c3C)n(C)n2)ccc1-n1cnc(C)c1 [Compound 304] | 48 | 42 | 11 | > 10000
19 | COc1cc(-c2nc(Nc3cc(C(C)(C)C)nn3C)n(C)n2)ccc1-n1cnc(C)c1 [Compound 244] | 7 | 83 | 5 | > 10000
20 | COc1cc(-c2nc3n(n2)CCCC3c2cc(C(F)(F)F)ccc2C)ccc1-n1cnc(C)c1 (stereo not drawn) [Compound 264] | 49 | 15 | 8 | > 10000
21 | COc1cc(-c2nc(Cc3ccc(F)cc3C(F)(F)F)nn2C)ccc1-n1cnc(C)c1 [Compound 57] |  | 851 |  | > 10000
22 | COc1cc(-c2nc3n(n2)CCCC3c2ccc(C(F)(F)F)cc2)ccc1-n1cnc(C)c1 (stereo not drawn) [Compound 268] |  | 141 |  | > 10000
23 | COc1cc(F)c(F)c(Nc2nc(-c3ccc(-n4cnc(C)c4)c(OC)c3)nn2C)c1 [Compound 216] |  | 76 |  | > 10000
24 | COc1cc(-c2nc(-c3ccccc3C(F)(F)F)n(C)n2)ccc1-n1cnc(C)c1 [Compound 38] |  | 158 |  | > 10000
25 | COc1cc(-c2nc(Nc3cccc(F)c3C(F)(F)F)n(C)n2)ccc1-n1cnc(C)c1 [Compound 155] |  | 95 |  | > 10000
26 | COc1cc(-c2nc(Nc3ccc(C#N)cc3C(F)(F)F)n(C)n2)ccc1-n1cnc(C)c1 [Compound 230] |  | 302 |  | > 10000
27 | COc1cc(-c2nc(Nc3cc(Cl)ccc3OC(F)(F)F)n(C)n2)ccc1-n1cnc(C)c1 [Compound 183] |  | 13 |  | > 10000
